Structures are written as SMILES. Bounds are passed on as bounds.

Common to all, as to type: functional
In experiment [1] the test system is HeLa. In words: Cytotoxic activity against human cervical adenocarcinoma-derived HeLa cell lines.
Experiment [2] relates to MCF7. In words: Cytotoxic activity against human breast tumor-derived MCF-7 cell lines.
For experiment [3], the system named is NCI/ADR-RES. The experiment is described as follows: Cytotoxic activity against MCF-7/ADR cell lines. The conditions noted are these: Homo sapiens.

Take `COc1ccc(NS(=O)(=O)c2c(F)cc(F)cc2F)cc1`: the GI50 in experiment [1], in experiment [2] and in experiment [3] was more than 50000 nM each time.
On to `COc1ccc(NS(=O)(=O)c2cc(F)c(F)c(F)c2)cc1`, for which the figures for the GI50 in experiment [1], in experiment [2] and in experiment [3] were 3900 nM, 2000 nM and 3400 nM, respectively.
The like results for `COc1ccc(NS(=O)(=O)c2c(F)cc(F)c(F)c2F)cc1` were, in that order, 5800 nM, 4500 nM and 4500 nM.
The like results for `COc1ccc(NS(=O)(=O)c2c(F)c(F)c(F)c(F)c2F)cc1` were, in that order, 99 nM, 29 nM and 58 nM.
The like results for `COc1ccc(NS(=O)(=O)c2c(F)c(Cl)c(F)c(Cl)c2F)cc1` were, in that order, 96 nM, 37 nM and 58 nM.
For `COc1ccc(NS(=O)(=O)c2c(F)c(F)c(Br)c(F)c2F)cc1`, the GI50 came to 17000 nM in experiment [1], 36000 nM in experiment [2] and 21000 nM in experiment [3].
For `CC(=O)O[C@H]1C(=O)[C@@]2(C)[C@H]([C@H](OC(=O)c3ccccc3)[C@]3(O)C[C@H](OC(=O)[C@H](O)[C@@H](NC(=O)c4ccccc4)c4ccccc4)C(C)=C1C3(C)C)[C@]1(OC(C)=O)CO[C@@H]1C[C@@H]2O` [PACLITAXEL], in that order: 7 nM, 1.1 nM and more than 50000 nM.
The like results for `COc1ccc(NS(=O)(=O)c2cc(F)c(Cl)c(F)c2F)cc1` were, in that order, 21000 nM, 44000 nM and 22000 nM.
For `COc1ccc(NS(=O)(=O)c2cc(F)c(F)c(F)c2F)cc1`, in that order: 370 nM, 120 nM and 400 nM.
With `COc1ccc(NS(=O)(=O)c2c(F)c(F)c(F)c(Br)c2F)cc1`, the 50% growth inhibitory concentration (GI50) in experiment [1] was determined as 220 nM; in experiment [2], 270 nM; in experiment [3] it was 190 nM.
For `COc1ccc(NS(=O)(=O)c2c(F)c(F)c(F)c(F)c2Br)cc1`, in that order: 160 nM, 39 nM and 160 nM.
With `COc1ccc(NS(=O)(=O)c2ccc(F)c(F)c2F)cc1`, the GI50 in experiment [1], in experiment [2] and in experiment [3] was more than 50000 nM in each case.
Consider `COc1ccc(NS(=O)(=O)c2c(F)c(F)cc(F)c2F)cc1`, for which the GI50 in experiment [1], in experiment [2] and in experiment [3] was more than 50000 nM each time.

These data come from ChEMBL document CHEMBL1132128, “Novel halogenated sulfonamides inhibit the growth of multidrug resistant MCF-7/ADR cancer cells” (1999).
